The values below come from patent publication US9867373B2, “Fungicidal composition having synergistic effect” (JIANGSU HUIFENG AGROCHEMICAL CO., LTD., priority 2013, dated 2018).

The subject of experiment [1] is downy mildew pathogens of cucumber. The experiment in a line: Toxicity test on downy mildew pathogens of cucumber (disease index and control effect on whole cucumber plant). To be noted: for ATI: actual toxicity index. The format is in vivo.
In experiment [2] the test system is oomycetes. To be noted: background statement; cited from earlier work.
For experiment [3], the system named is rust pathogens of wheat. The experiment in a line: whole plant or invertebrate. The format is in vivo.

As a reminder, the EC50 is the concentration that produces a half-maximal response. A higher EC50 goes with lower potency in that assay.

Converted amounts (≈) assume the structure as drawn.

Turning to `COc1ccc(C(=CC(=O)N2CCOCC2)c2ccc(Cl)cc2)cc1OC` [Dimethomorph, dimethomorph], the ATI in experiment [1] (Table 2, with dimethomorph) was 63.9. Moreover, the “concentration at which an inhibitory effect is exerted” value in experiment [2] was < 0.25 µg/mL.

In experiment [3] (Triticum aestivum), `CON=C(C(=O)OC)c1ccccc1CON=C(C)c1cccc(C(F)(F)F)c1` [Trifloxystrobin, trifloxystrobin] gave an EC50 of 4.75 µg/mL (≈ 11.6 µM). For `Cc1cc(C2CC2)nc(Nc2ccccc2)n1` [Cyprodinil, cyprodinil], in experiment [3] (Triticum aestivum), the EC50 worked out at 5.87 µg/mL (≈ 26.1 µM). On the same count and under the same terms, the figure for `COC(=O)N(OC)c1ccccc1COc1ccn(-c2ccc(Cl)cc2)n1` [Pyraclostrobin, pyraclostrobin] is 4.98 µg/mL (≈ 12.8 µM). For the compound `CC(C)NC(=O)N1CC(=O)N(c2cc(Cl)cc(Cl)c2)C1=O` [Iprodione, iprodione], in experiment [3] (Triticum aestivum), the EC50 was 5.35 µg/mL (≈ 16.2 µM).

In experiment [1] (Table 8, with acibenzolar), `O=C(S)c1cccc2nnsc12` [Acibenzolar, acibenzolar] had an EC50 of 5.38 µg/mL (≈ 27.4 µM) and an ATI of 91.45. With polyoxin, in experiment [1] (Table 6, with polyoxin), the EC50 worked out at 5.24 µg/mL and the ATI was found to be 89.89. `O=[N+]([O-])c1cc(C(F)(F)F)c(Cl)c([N+](=O)[O-])c1Nc1ncc(C(F)(F)F)cc1Cl` [Fluazinam, fluazinam] registered an EC50 in experiment [1] (Cucumis sativus) of 5.19 µg/mL (≈ 11.2 µM). In addition, in experiment [1] (Table 9, with fluazinam), the ATI is 97.88. Turning to `CC1COC(Cn2cncn2)(c2ccc(Oc3ccc(Cl)cc3)cc2Cl)O1` (stereo not shown) [Difenoconazole, difenoconazole], the response in experiment [3] (Triticum aestivum) was half-maximal at 5.45 µg/mL (≈ 13.4 µM) (EC50). `CC(C)OC(=O)N[C@H](C(=O)N[C@H](C)c1nc2ccc(F)cc2s1)C(C)C` [Benthiavalicarb-isopropyl, benthiavalicarb-isopropyl]: the midpoint of the response in experiment [1] (Cucumis sativus), the EC50, lay at 5.41 µg/mL (≈ 14.2 µM). This compound showed an ATI in experiment [1] (Table 1, with benthiavalicarb-isopropyl) of 60.1. Turning to `Fc1ccc([C@]2(Cn3cncn3)O[C@H]2c2ccccc2Cl)cc1` (racemic) [Epoxiconazole, epoxiconazole], the concentration giving a half-maximal response (EC50) in experiment [3] (Triticum aestivum) turned out to be 5.29 µg/mL (≈ 16 µM). `N#Cc1sc2c(=O)c3ccccc3c(=O)c=2sc1C#N` [Dithianon, dithianon] returned an EC50 in experiment [1] (Cucumis sativus) of 5.34 µg/mL (≈ 18 µM). Besides, the ATI in experiment [1] (Table 5, with dithianon) is reported as 88.39.

`CSC1=N[C@@](C)(c2ccccc2)C(=O)N1Nc1ccccc1` [Fenamidone, fenamidone] came in with an EC50 in experiment [1] (Cucumis sativus) of 5.12 µg/mL (≈ 16.4 µM). In addition, the ATI in experiment [1] (Table 4, with fenamidone) worked out at 107.62. Turning to `CO/C=C(/C(=O)OC)c1ccccc1Oc1cc(Oc2ccccc2C#N)ncn1` [Azoxystrobin, azoxystrobin], in experiment [1] (Table 3, with azoxystrobin), the EC50 came out at 5.82 µg/mL (≈ 14.4 µM) and the ATI is listed as 72.34.

In turn, `CO/C=C(/C(=O)OC)c1ccccc1COc1cccc(C(F)(F)F)n1` [Picoxystrobin, picoxystrobin] had an EC50 in experiment [3] (Table 15, with picoxystrobin) of 5.68 µg/mL (≈ 15.5 µM). In experiment [3] (actual toxicity index, Table 15, with picoxystrobin), the ATI was 87.68. `Cc1nc(C(F)(F)F)c(C(=O)Nc2c(Br)cc(OC(F)(F)F)cc2Br)s1` [Thifluzamide, thifluzamide] displayed an EC50 in experiment [3] (Triticum aestivum) of 5.12 µg/mL (≈ 9.7 µM).

On to `OC(Cc1ccccc1Cl)(Cn1nc[nH]c1=S)C1(Cl)CC1` (stereo not shown) [Prothioconazole, prothioconazole], for which the response in experiment [3] (Triticum aestivum) was half-maximal at 5.12 µg/mL (≈ 14.9 µM) (EC50).

In experiment [1] (Cucumis sativus), `CCC(C)(NC(=O)c1cc(Cl)c(C)c(Cl)c1)C(=O)CCl` (stereo not shown) [Zoxamide, zoxamide] yielded an EC50 of 5.11 µg/mL (≈ 15.2 µM). The ATI in experiment [1] (Table 7, with zoxamide) is given as 95.69.
